Data taken from patent publication US20050054629A1, “Compounds and methods of treating cell proliferative diseases” (priority 2002, published 2005).
One block for each compound: values may come before it.

Tests used:
MRC-5 = assay: Cytotoxicity assay (MTT), 6 days; type: cell-based; conditions: Homo sapiens, MRC5, 144 h, 6 days of treatment, read-out: Toxicity 6d (IC 50, μM) MRC-5
Procedure, shortened: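 Survival is measured by formazan absorbance at 550 nm following 3 h incubation with 0.5 mg/ml MTT at 37° C. Treatment lasts 6 days at compound concentrations up to 50 μM with DMSO held at 1%. The 50% inhibitory concentration derives from surviving fraction.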

HCT116 cells = assay: Anchorage-independent growth assay (soft agar / Matrigel); type: cell-based, human; conditions: for effect on anchorage-independent growth: HCT116; for IC50: Homo sapiens, HCT-116, 168 h, HCT116, 3-dimensional growth, 1 week
Procedure: In order to evaluate the effect of the compounds on the capacity of tumor cells to grow without anchorage, HCT116 cells were seeded either in agar or in Matrigel (BD, France). For 3D growth experiment in soft agar in 24-well plates, 5.10^3 HCT116 cells were resuspended in 250 μl of complete medium containing 0.3% soft-agar (Difco) and different concentrations of compound (0.1, 1, 10, 17.5, 25 and 50 μM). Cells were then poured on a solidified layer of medium containing 0.5% of soft-agar plus the compound at the same concentration than in the upper layer. Cells were incubated at 37° C. for 1 week before they were analysed using a phase contrast microscope (Nikon). For 3D growth experiment in Matrigel, 10^4 HCT116 cells were resuspended in 300 μl of complete medium containing 5 mg/ml Matrigel (BD, France) and different concentrations of compound (0.1, 1, 10, 17.5, 25 and 50 μM), and poured in 24-well plates. After solidification at 37° C. for 15 min., complete medium containing the compound was added to each well. Cells were incubated for 1 week before they were collected using Matrisperse (BD, France) according to the manufacturer's instructions. After recovery, alive cells were counted with trypan blue exclusion.

cell architecture = assay: Cell architecture modification, phase contrast; type: cell-based; parameters: key: −: no effect of the compound was observed; +: an effect of the compound was observed
MDA231 = assay: Cytoskeleton analysis, actin staining (FITC-phalloidin); type: cell-based, human
Procedure: (§1) Since major rearrangements of cytoskeleton are observed in tumor cells and since the small GTPases are known to regulate these events, analysis of actin cytoskeleton was performed. Subconfluent cells seeded onto coverslips were treated with different concentration of compound (1, 10, 17.5, 25 and 50 μM) or vehicle for 24 h, before being fixed in 4% formaldehyde for 15 min., permeabilized in 0.2% Triton X100 for 5 minutes and incubated in PowerBlock (Biogenex) for 10 min. Actin filaments were stained with 0.5 μg/ml fluorescein isothiocyanate (FITC)-labelled phalloidin for 1 hour. Analysis was performed using an inverted fluorescent microscope.

MMP-2 = assay: Gelatin zymography; type: cell-based, human; conditions: MDA-MB-231 supernatant
Procedure: (§2) The activity of the metalloproteases MMP-2 and MMP-9 was assayed using gelatinolytic zymography according to Lambert (Surgery 1997). Briefly, MDA-MB-231 cells were incubated overnight in serum-free medium supplemented with ITS liquid supplement (Sigma) with different concentrations of compound (1, 10, 17.5, 25 and 50 μM). Supernatant was collected and concentrated with Ultrafree 30 kDA (Millipore). Equal amount of proteins, as determined by Bradford measurement, were loaded onto a 10% w/v polyacrylamide gel containing 1% gelatin and 0.1% SDS (Novex). After electrophoresis, gels were washed in Novex Zymogram Renaturing buffer for 30 min at room temperature and incubated overnight at 37° C. in Novex Zymogram developing buffer. Gels were stained in Coomassie Brilliant Blue G-250, and the gelatinolytic activity was visualized as a clear band against the blue background of the stained gelatin.

MMP-9 = assay: Gelatin zymography; type: cell-based, human; conditions: MDA-MB-231 supernatant
Procedure: as §2

H460 = assay: Cytoskeleton analysis, actin staining (FITC-phalloidin); type: cell-based, human; conditions: H460 tumor cells
Procedure: as §1

HCT116 = assay: as above; type: cell-based, human; conditions: HCT116 tumor cells
Procedure: as §1

IC50 (HCT116 cells): < 1 µM
SMILES: CCCc1c(OCCCCCOc2coc(CO)cc2=O)ccc(Cl)c1Cl [EH22900, 5-[5-(3,4-Dichloro-2-propylphenyloxy)pentyloxy]-2-(hydroxymethyl)-4H-pyran-4-one]
IC50 (MRC-5): 25 µM | effect on anchorage-independent growth (HCT116 cells): strongest effect | Cell architecture modification phase contrast (cell architecture): + | MDA-MB-231 spreading (MDA231): increased | Cell architecture modification actin staining MDA231 (MDA231; 24 h treatment): cell spreading | concentration inhibiting MMP-2 in a dose-dependant manner (zymogram gel) (MMP-2): 5 µM | concentration inhibiting MMP-9 in a dose-dependant manner (zymogram gel) (MMP-9): 5 µM

IC50 (HCT116 cells): < 1 µM
SMILES: C/C=C/c1oc(CO)cc(=O)c1OCCCCCOc1ccc(Cl)c(Cl)c1CCC [EH31101, (E)-3-[5-(3,4-Dichloro-2-propylphenyloxy)pentyloxy]-6-(hydroxymethyl)-2-(propen-1-yl)-4H-pyran-4-one]
effect on anchorage-independent growth (HCT116 cells): significant, although less severe, effect | Cell architecture modification phase contrast (cell architecture): + | concentration at which dose-dependant increase in spreading and disruption of cell-to-cell junctions was observed (H460): 25 µM | concentration at which dose-dependant increase in spreading and disruption of cell-to-cell junctions was observed (HCT116): 10 µM | concentration inhibiting MMP-2 in a dose-dependant manner (zymogram gel) (MMP-2): 0.1 µM | concentration inhibiting MMP-9 in a dose-dependant manner (zymogram gel) (MMP-9): 0.1 µM
